Values quoted from earlier work as cited in patent US20120148649A1, “COMPOSITION FOR RESTORATION OF AGE RELATED TISSUE IN THE FACE OR SELECTED AREAS OF THE BODY” (priority 2004, published 2012).

Legend:
cancer patients = details: human clinical trials, hundreds of cancer patients
tumor growth = details: deuterium concentration from 0.1 to 110 ppm; animal model studies

In the case of deuterium depleted water, the “effect on life span of cancer patients” value (cancer patients) is given as “extended life span” and the “effect on tumor growth” value (tumor growth) is given as “inhibits tumor growth”.
